Test results as given in ChEMBL document CHEMBL5321210, “N-adamantyl-anthranil amide derivatives: New selective ligands for the cannabinoid receptor subtype 2 (CB2R)” (Eur J Med Chem, 2023).
Calls of active or inactive are those of the source. The calls are words filed in the database; no cut-off is given here.

Tests used:
THP-1 [1] = test: Antiinflammatory activity in PMA-differentiated human THP-1 macrophages assessed as decrease in IL-1beta production at 1 to 10 uM incubated for 24 hrs in the presence of JTE907 by ELISA coupled qRT-PCR analysis; type: functional, cell-based; conditions: dose 1-10 µM
THP-1 [2] = test: Antiinflammatory activity in PMA-differentiated human THP-1 macrophages assessed as reduction in IL-1beta production at 1 to 10 uM incubated for 24 hrs by ELISA coupled qRT-PCR analysis relative to control; type: functional; design: scale not given: the % may be the effect or the level left; conditions: dose 1-10 µM
THP-1 [3] = test: Antiinflammatory activity in human THP-1 monocytes assessed as increase in IL-4 production incubated for 24 hrs by ELISA coupled qRT-PCR analysis; type: functional, cell-based; conditions: dose 1-10 µM
THP-1 [4] = test: Antiinflammatory activity in PMA-differentiated human THP-1 macrophages assessed as decrease in TNF-alpha production at 1 to 10 uM incubated for 24 hrs in the presence of JTE907 by ELISA coupled qRT-PCR analysis; type: functional, cell-based; conditions: dose 1-10 µM
THP-1 [5] = test: Antiinflammatory activity in human THP-1 monocytes assessed as decrease in IL-1beta production incubated for 24 hrs by ELISA coupled qRT-PCR analysis; type: functional, cell-based; conditions: dose 1-10 µM
THP-1 [6] = test: Antiinflammatory against LPS-activated human THP-1 monocytes assessed as increase in IL-10 production at 1 to 10 uM incubated for 24 hrs in the presence of JTE907 by ELISA coupled qRT-PCR analysis; type: functional, cell-based; conditions: dose 1-10 µM
THP-1 [7] = test: Antiinflammatory activity against LPS-activated PMA-differentiated human THP-1 macrophages assessed as decrease in IL-1beta production at 1 to 10 uM incubated for 24 hrs by ELISA coupled qRT-PCR analysis relative to control; type: functional; design: scale not given: the % may be the effect or the level left; conditions: dose 1-10 µM
THP-1 [8] = test: Antiinflammatory activity against LPS-activated PMA-differentiated human THP-1 macrophages assessed as increase in IL-10 production at 1 to 10 uM incubated for 24 hrs by ELISA coupled qRT-PCR analysis; type: functional, cell-based; conditions: dose 1-10 µM
THP-1 [9] = test: Antiinflammatory activity in LPS-activated PMA-differentiated human THP-1 macrophages assessed as decrease in TNF-alpha production at 1 to 10 uM incubated for 24 hrs in the presence of JTE907 by ELISA coupled qRT-PCR analysis; type: functional, cell-based; conditions: dose 1-10 µM
THP-1 [10] = test: Antiinflammatory activity in human THP-1 monocytes assessed as decrease in IFN-gamma production at 1 to 10 uM incubated for 24 hrs in the presence of JTE907 by ELISA coupled qRT-PCR analysis; type: functional, cell-based; conditions: dose 1-10 µM
Cannabinoid receptor 2 = Cannabinoid receptor 2 (Homo sapiens, UniProt P34972); test: Displacement of [3H]-CP55940 from human CB2 receptor expressed in HEK293 cell membrane assessed as inhibition constant incubated for 90 mins by radioligand competition binding assay; type: cell membranes
Cannabinoid receptor 2, sequence (P34972 whole entry): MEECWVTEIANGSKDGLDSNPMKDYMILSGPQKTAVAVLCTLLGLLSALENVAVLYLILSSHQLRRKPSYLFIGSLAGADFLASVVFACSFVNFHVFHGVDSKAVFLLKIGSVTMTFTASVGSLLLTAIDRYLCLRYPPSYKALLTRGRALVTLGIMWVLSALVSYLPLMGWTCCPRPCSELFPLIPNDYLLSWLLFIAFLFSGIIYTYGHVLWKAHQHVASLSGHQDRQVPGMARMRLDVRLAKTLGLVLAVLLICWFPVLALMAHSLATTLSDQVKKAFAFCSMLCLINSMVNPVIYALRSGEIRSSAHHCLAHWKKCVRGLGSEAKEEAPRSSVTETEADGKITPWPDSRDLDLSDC

THP-1 [11] = test: Antiinflammatory activity in human THP-1 monocytes assessed as decrease in IL-1beta production at 1 to 10 uM incubated for 24 hrs in the presence of JTE907 by ELISA coupled qRT-PCR analysis; type: functional, cell-based; conditions: dose 1-10 µM
THP-1 [12] = test: Antiinflammatory activity in PMA-differentiated human THP-1 macrophages assessed as reduction in IL-6 production at 1 to 10 uM incubated for 24 hrs by ELISA coupled qRT-PCR analysis relative to control; type: functional; design: scale not given: the % may be the effect or the level left; conditions: dose 1-10 µM
THP-1 [13] = test: Antiinflammatory activity in human THP-1 monocytes assessed as decrease in IL-1beta production at 10 uM incubated for 24 hrs in the presence of N-(adamantan-1-yl)-4-(pentylamino)-[1,1'-biphenyl]-3-carboxamide by ELISA coupled qRT-PCR analysis; type: functional, cell-based
THP-1 [14] = test: Antiinflammatory activity in LPS-activated PMA-differentiated human THP-1 macrophages assessed as decrease in IL-6 production at 10 uM incubated for 24 hrs in the presence of JTE907 by ELISA coupled qRT-PCR analysis; type: functional, cell-based
THP-1 [15] = test: Antiinflammatory against LPS-activated human THP-1 monocytes assessed as increase in IL-10 production at 10 uM incubated for 24 hrs in the presence of JTE907 by ELISA coupled qRT-PCR analysis; type: functional, cell-based
THP-1 [16] = test: Antiinflammatory activity in PMA-differentiated human THP-1 monocytes assessed as decrease in IL-1beta production at 10 uM incubated for 24 hrs in the presence of N-(adamantan-1-yl)-4-(pentylamino)-[1,1'-biphenyl]-3-carboxamide by ELISA coupled qRT-PCR analysis; type: functional, cell-based
THP-1 [17] = test: Antiinflammatory activity in PMA-differentiated human THP-1 macrophages assessed as reduction in IL-1beta production at 10 uM incubated for 24 hrs by ELISA coupled qRT-PCR analysis relative to control; type: functional; design: scale not given: the % may be the effect or the level left
THP-1 [18] = test: Antiinflammatory activity against LPS-activated PMA-differentiated human THP-1 monocytes assessed as increase in IL-4 production at 10 uM incubated for 24 hrs in the presence of N-(adamantan-1-yl)-4-(pentylamino)-[1,1'-biphenyl]-3-carboxamide by ELISA coupled qRT-PCR analysis; type: functional, cell-based
THP-1 [19] = test: Antiinflammatory activity in LPS-activated PMA-differentiated human THP-1 macrophages assessed as decrease in TNF-alpha production at 10 uM incubated for 24 hrs in the presence of JTE907 by ELISA coupled qRT-PCR analysis; type: functional, cell-based
THP-1 [20] = test: Antiinflammatory activity in PMA-differentiated human THP-1 monocytes assessed as decrease in TNF-alpha production at 10 uM incubated for 24 hrs in the presence of N-(adamantan-1-yl)-4-(pentylamino)-[1,1'-biphenyl]-3-carboxamide by ELISA coupled qRT-PCR analysis; type: functional, cell-based
THP-1 [21] = test: Antiinflammatory activity in human THP-1 monocytes assessed as decrease in IFN-gamma production at 10 uM incubated for 24 hrs in the presence of JTE907 by ELISA coupled qRT-PCR analysis; type: functional, cell-based
THP-1 [22] = test: Antiinflammatory activity against LPS-activated human THP-1 monocytes assessed as increase in IL-4 production at 10 uM incubated for 24 hrs in the presence of N-(adamantan-1-yl)-4-(pentylamino)-[1,1'-biphenyl]-3-carboxamide by ELISA coupled qRT-PCR analysis; type: functional, cell-based
THP-1 [23] = test: Antiinflammatory activity in PMA-differentiated human THP-1 macrophages assessed as decrease in IFN-gamma production at 10 uM incubated for 24 hrs in the presence of JTE907 by ELISA coupled qRT-PCR analysis; type: functional, cell-based
THP-1 [24] = test: Antiinflammatory activity in PMA-differentiated human THP-1 macrophages assessed as increase in IL-4 production at 10 uM incubated for 24 hrs in the presence of JTE907 by ELISA coupled qRT-PCR analysis; type: functional, cell-based
THP-1 [25] = test: Antiinflammatory activity in PMA-differentiated human THP-1 macrophages assessed as decrease in TNF-alpha production at 10 uM incubated for 24 hrs in the presence of JTE907 by ELISA coupled qRT-PCR analysis; type: functional, cell-based
THP-1 [26] = test: Antiinflammatory activity in PMA-differentiated human THP-1 monocytes assessed as increase in IL-4 production at 10 uM incubated for 24 hrs in the presence of N-(adamantan-1-yl)-4-(pentylamino)-[1,1'-biphenyl]-3-carboxamide by ELISA coupled qRT-PCR analysis; type: functional, cell-based
THP-1 [27] = test: Antiinflammatory activity against LPS-activated PMA-differentiated human THP-1 macrophages assessed as increase in IL-4 production at 10 uM incubated for 24 hrs by ELISA coupled qRT-PCR analysis; type: functional, cell-based

Compound: CCCCCNc1ccccc1C(=O)NC12CC3CC(CC(C3)C1)C2
- Activity (THP-1 [1]): inactive
- Activity (THP-1 [2]): 50%
- Activity (THP-1 [3]): Dose-Dependent Effect
- Activity (THP-1 [4]): inactive
- Activity (THP-1 [5]): Dose-Dependent Effect
- Activity (THP-1 [6]): inactive
- Activity (THP-1 [7]): 70%
- Activity (THP-1 [8]): Active
- Activity (THP-1 [9]): inactive
- Activity (THP-1 [10]): inactive
- Ki (Cannabinoid receptor 2): 0.0557 µM
- Activity (THP-1 [11]): inactive
- Activity (THP-1 [12]): 50%

Compound: O=C(NC1CCCCC1)c1cn(CCN2CCOCC2)c2cc(Cl)ccc2c1=O
- Activity (THP-1 [13]): inactive
- Activity (THP-1 [14]): inactive
- Activity (THP-1 [15]): inactive
- Activity (THP-1 [16]): inactive
- Activity (THP-1 [17]): 50%
- Activity (THP-1 [18]): inactive
- Activity (THP-1 [19]): inactive
- Activity (THP-1 [20]): inactive
- Activity (THP-1 [21]): inactive
- Activity (THP-1 [22]): inactive
- Activity (THP-1 [23]): inactive
- Activity (THP-1 [24]): inactive
- Activity (THP-1 [25]): inactive
- Activity (THP-1 [26]): inactive
- Activity (THP-1 [27]): Active
